Data: DBAASP
Values after ≈ are worked out from the molar mass of the structure shown.

Tests used:
Test in all cases: ≥ marks a high value that may be exact or a test limit, other limits are often not marked, values filed in µg/mL are converted to µM
[1] = test system: Pseudomonas aeruginosa ATCC 27853
[2] = test system: Escherichia coli ATCC 25922
[3] = test system: Enterobacter cloacae HNTCC 53001
[4] = test system: Staphylococcus aureus NCTC 8325
[5] = test system: Staphylococcus epidermidis RP62A
[6] = test system: Enterococcus faecalis ATCC 29212
[7] = test system: Candida albicans ATCC 90028
[8] = test system: Klebsiella pneumoniae KK3 9904
[9] = test system: Proteus mirabilis ATCC 25933
[10] = test system: Streptococcus mutans GS-5
[11] = test system: Streptococcus gordonii ATCC 10558
[12] = test system: Streptococcus sanguinis ATCC 49295
[13] = test system: Aspergillus fumigatus
[14] = test system: Candida albicans ATCC 10231
[15] = test system: Staphylococcus aureus ATCC 12600
[16] = test system: Botrytis cinerea
[17] = test system: Escherichia coli ATCC 11775
[18] = test system: Escherichia coli DC2
[19] = test system: Corynebacterium xerosis C875
[20] = test system: Staphylococcus epidermidis C621
[21] = test system: Escherichia coli UB1005
[22] = test system: Pseudomonas syringae pv. syringae EPS 94
[23] = test system: Xanthomonas campestris pv. Vesicatoria 2133-2
[24] = test system: Erwinia amylovora PMV 6076
[25] = test system: Pseudomonas aeruginosa
[26] = test system: Bacillus subtilis 168
[27] = test system: Staphylococcus aureus
[28] = test system: Micrococcus luteus CCM 144
[29] = test system: Escherichia coli B
[30] = test system: Candida albicans F7-39/IDE99
[31] = test system: Bacillus subtilis
[32] = test system: Salmonella typhimurium
[33] = test system: Streptococcus pyogenes
[34] = test system: Escherichia coli
[35] = test system: Proteus vulgaris
[36] = test system: Staphylococcus epidermidis
[37] = test system: Candida albicans

An MIC [1] of 10 µM (≈ 27 µg/mL), an MIC [2] of 5 µM (≈ 13.5 µg/mL) and an MIC [3] of 10 µM (≈ 27 µg/mL) were found for CC[C@H](C)[C@H](NC(=O)CNC(=O)[C@H](CCC(N)=O)NC(=O)[C@H](Cc1ccccc1)NC(=O)[C@@H](NC(=O)[C@H](CCCCN)NC(=O)[C@H](CCCCN)NC(=O)[C@H](CC(C)C)NC(=O)[C@H](C)NC(=O)[C@H](CCCCN)NC(=O)[C@H](CC(C)C)NC(=O)CN)C(C)C)C(=O)N[C@@H](Cc1cnc[nH]1)C(=O)N[C@@H](CCCCN)C(=O)N[C@@H](C)C(=O)N[C@H](C(=O)N[C@@H](CCCCN)C(=O)N[C@@H](CC(C)C)C(=O)N[C@H](C(=O)N[C@@H](CC(N)=O)C(=O)N[C@@H](CC(N)=O)C(=O)N[C@@H](Cc1cnc[nH]1)C(=O)N[C@H](C(=O)N[C@@H](CCC(N)=O)C(=O)O)C(C)C)[C@@H](C)CC)[C@@H](C)CC [GLKALKKVFQGIHKAIKLINNHVQ] in this work. It also gave an MIC [4] of no less than 40 µM, an MIC [5] of 20 µM (≈ 54 µg/mL) and an MIC [6] greater than 80 µM. It also gave an MIC [7] of no less than 80 µM, an MIC [8] of 5 µM (≈ 13.5 µg/mL) and an MIC [9] of no less than 80 µM.
An MIC [2] of 18.2 µM (≈ 25 µg/mL), an MIC [10] of no less than 34.9 µM and an MIC [11] of no less than 46.6 µM were found for CC(C)[C@H](NC(=O)[C@H](CO)NC(=O)[C@H](CCCN=C(N)N)NC(=O)[C@H](CCCN=C(N)N)NC(=O)[C@H](CCCN=C(N)N)NC(=O)[C@H](CCCN=C(N)N)NC(=O)CN)C(=O)N[C@@H](CCC(N)=O)C(=O)N[C@@H](Cc1c[nH]c2ccccc12)C(=O)N[C@@H](CS)C(=O)N[C@@H](C)C(=O)O [GRRRRSVQWCA] in this work. The MIC [6] was 72.8 µM (≈ 100 µg/mL), the MIC [12] was no less than 101 µM and the MIC [13] was 5 µM (≈ 6.87 µg/mL).
An MIC [1] of 100 µM (≈ 256 µg/mL), an MIC [2] of 50 µM (≈ 128 µg/mL) and an MIC [3] of no less than 50 µM were found for CC[C@H](C)[C@H](NC(=O)[C@H](CC(=O)O)NC(=O)[C@@H](NC(=O)[C@@H](NC(=O)CN)C(C)C)C(C)C)C(=O)N[C@@H](CC(C)C)C(=O)N[C@@H](CCCCN)C(=O)NCC(=O)N[C@@H](C)C(=O)N[C@@H](C)C(=O)N[C@@H](CCCCN)C(=O)N[C@@H](CC(=O)O)C(=O)N[C@@H](CC(C)C)C(=O)N[C@@H](C)C(=O)NCC(=O)N[C@@H](Cc1c[nH]cn1)C(=O)N[C@@H](CC(C)C)C(=O)N[C@@H](C)C(=O)N[C@H](C(=O)N[C@@H](CCCCN)C(=O)N[C@H](C(=O)N[C@@H](CCSC)C(=O)N[C@@H](CC(N)=O)C(=O)N[C@@H](CCCCN)C(=O)N[C@@H](CC(C)C)C(N)=O)C(C)C)[C@@H](C)O [GVVDILKGAAKDLAGHLATKVMNKL] in this work. For the same compound, the MIC [4] was no less than 200 µM, the MIC [5] was no less than 200 µM and the MIC [6] was greater than 200 µM. For the same compound, the MIC [7] was no less than 200 µM, the MIC [8] was no less than 100 µM and the MIC [9] was no less than 200 µM.
An MIC [14] greater than 200 µM, an MIC [15] of no less than 200 µM and an MIC [16] of no less than 200 µM were found for CC[C@H](C)[C@H](N)C(=O)N[C@@H](CC(N)=O)C(=O)N1CCC[C@H]1C(=O)N[C@@H](CCCCN)C(=O)N[C@@H](CO)C(=O)N[C@H](C(=O)N[C@@H](CCC(N)=O)C(=O)N[C@@H](CO)C(=O)N[C@@H](CC(C)C)C(=O)N[C@@H](CC(C)C)C(N)=O)C(C)C [INPKSVQSLL] in this work. It also gave an MIC [17] of no less than 200 µM.
An MIC [18] of 16 µM (≈ 38 µg/mL), an MIC [19] of 0.25 µM (≈ 0.594 µg/mL) and an MIC [20] of 4 µM (≈ 9.51 µg/mL) were found for CC[C@H](C)[C@H](NC(=O)[C@H](C)NC(=O)[C@H](C)NC(=O)[C@H](C)NC(=O)[C@H](CCCCN)NC(=O)[C@@H](N)CCCCN)C(=O)N[C@@H](C)C(=O)N[C@@H](C)C(=O)N[C@@H](C)C(=O)N[C@@H](C)C(=O)N[C@@H](C)C(=O)N[C@H](C(=O)N[C@@H](C)C(=O)N[C@@H](C)C(=O)N[C@@H](Cc1c[nH]c2ccccc12)C(=O)N[C@@H](C)C(=O)N[C@@H](C)C(=O)N[C@H](C(=O)N[C@@H](C)C(=O)N[C@@H](C)C(=O)N[C@@H](C)C(=O)N[C@@H](CCCCN)C(=O)N[C@@H](CCCCN)C(=O)N[C@@H](CCCCN)C(=O)N[C@@H](CCCCN)C(N)=O)[C@@H](C)CC)[C@@H](C)CC [KKAAAIAAAAAIAAWAAIAAAKKKK] in this work. It also gave an MIC [21] of no less than 32 µM.
An MIC [22] of 14.1 µM (≈ 46.8 µg/mL), an MIC [23] of 14.1 µM (≈ 46.8 µg/mL) and an MIC [24] of 14.1 µM (≈ 46.8 µg/mL) were found for CC[C@H](C)[C@H](NC(=O)[C@H](CCCCN)NC(=O)[C@H](CCCCN)NC(=O)[C@H](Cc1ccccc1)NC(=O)[C@H](CC(C)C)NC(=O)[C@H](CCCCN)NC(=O)[C@H](CCCCN)NC(=O)[C@H](CC(C)C)NC(=O)[C@H](Cc1ccc(O)cc1)NC(=O)[C@H](CCCCN)NC(=O)[C@H](CC(C)C)NC(=O)[C@@H](NC(=O)[C@H](CCCCN)NC(=O)[C@H](CCCCN)NC(=O)[C@H](Cc1ccccc1)NC(=O)[C@H](CC(C)C)NC(=O)[C@H](CCCCN)NC(=O)[C@@H](N)CCCCN)[C@@H](C)CC)C(=O)N[C@@H](CC(C)C)C(=O)N[C@@H](CCCCN)C(=O)N[C@@H](Cc1ccc(O)cc1)C(=O)N[C@@H](CC(C)C)C(=O)N[C@@H](CCCCN)C(=O)N[C@@H](CC(=O)O)C(=O)N[C@@H](CCC(=O)O)C(=O)N[C@@H](CC(C)C)C(=O)O [KKLFKKILKYLKKLFKKILKYLKDEL] in this work.
An MIC [25] of 20.8 µM (≈ 30.4 µg/mL), an MIC [26] of 1.7 µM (≈ 2.49 µg/mL) and an MIC [27] of 8.7 µM (≈ 12.7 µg/mL) were found for CC[C@H](C)[C@H](NC(=O)[C@H](CCCCN)NC(=O)CNC(=O)[C@H](Cc1c[nH]c2ccccc12)NC(=O)[C@H](CC(N)=O)NC(=O)[C@@H](N)CC(C)C)C(=O)N[C@@H](CC(C)C)C(=O)N[C@@H](CCCCN)C(=O)N[C@@H](Cc1cnc[nH]1)C(=O)N[C@H](C(=O)N[C@H](C(=O)N[C@@H](CCCCN)C(N)=O)[C@@H](C)CC)[C@@H](C)CC [LNWGKILKHIIK] in this work. For the same compound, the MIC [28] was 2.2 µM (≈ 3.22 µg/mL), the MIC [29] was 4 µM (≈ 5.85 µg/mL) and the MIC [30] was 7.3 µM (≈ 10.7 µg/mL).
An MIC [31] of no less than 64 µM, an MIC [25] of 16 µM (≈ 37.3 µg/mL) and an MIC [32] of 0.5 µM (≈ 1.17 µg/mL) were found for CC(C)C[C@H](NC(=O)[C@H](CCCN=C(N)N)NC(=O)[C@@H]1CCCN1C(=O)[C@H](Cc1cnc[nH]1)NC(=O)[C@@H]1CCCN1C(=O)[C@@H]1CCCN1C(=O)[C@H](CCCN=C(N)N)NC(=O)[C@@H]1CCCN1C(=O)[C@@H]1CCCN1C(=O)[C@H](Cc1cnc[nH]1)NC(=O)[C@@H]1CCCN1C(=O)[C@@H]1CCCN1C(=O)[C@H](CCCN=C(N)N)NC(=O)[C@@H]1CCCN1C(=O)[C@@H]1CCCN1C(=O)[C@H](Cc1cnc[nH]1)NC(=O)[C@@H]1CCCN1C(=O)[C@@H]1CCCN1C(=O)[C@H](CCCN=C(N)N)NC(=O)[C@@H]1CCCN1)C(=O)O [PRPPHPPRPPHPPRPPHPRL] in this work. For the same compound, the MIC [33] was no less than 64 µM, the MIC [34] was 0.5 µM (≈ 1.17 µg/mL) and the MIC [35] was 2 µM (≈ 4.67 µg/mL). For the same compound, the MIC [36] was no less than 64 µM.
An MIC [37] greater than 671 µM and an MIC [13] of no less than 335 µM were found for CC(C)C[C@H](NC(=O)[C@H](Cc1ccccc1)NC(=O)[C@@H]1CCCN1C(=O)[C@H](Cc1c[nH]c2ccccc12)NC(=O)[C@H](Cc1c[nH]c2ccccc12)NC(=O)[C@H](Cc1c[nH]c2ccccc12)NC(=O)[C@@H]1CCCN1C(=O)[C@H](Cc1ccccc1)NC(=O)[C@@H](N)CCCN=C(N)N)C(=O)N[C@@H](CCCN=C(N)N)C(=O)O [RFPWWWPFLR] in this work.
